How the values were obtained:
RA patients [1] = assay: Disease Activity Score 28 (DAS28(CRP)), Study 2; type: in vivo, human
From the text: As used herein, the term ‘DAS28(CRP)’ refers to a clinical scoring ranging from 2.0 to 10.0 to measure the disease status at a given point in time, and thereby follow the progress and improvement of rheumatoid arthritis in a patient, and includes a 28 tender and swollen joint count, CRP measurement from blood analysis, and a general health assessment on a visual analog scale. A DAS28(CRP) value below 2.6 is indicative of remission, A DAS28(CRP) between 2.6 and 3.2 is indicative of low disease activity, between 3.2 and 5.1 is indicative of moderate disease activity, whereas a DAS28(CRP) above 5.1 is linked to high disease activity. (Wells et al., 2008)
Double-blind, placebo-controlled, monotherapy study in subjects with moderately to severely active RA who have an inadequate response to methotrexate (MTX) (oral or parenteral).
Twelve weeks of treatment with Compound 1 (dosed as a [Compound 1:HCl:3H2O]) at 50 mg, 100 mg, or 200 mg q.d.; or placebo. At Week 12, all subjects on placebo and the subjects on the 50 mg dose who have not achieved 20% improvement in swollen joint count (SJC66) and tender joint count (TJC68) will be assigned to 100 mg q.d. in a blinded fashion and will continue treatment until Week 24. Subjects in the other groups will maintain their randomized treatment until Week 24.
The (DAS28(CRP)) is a system developed and validated by the European League Against Rheumatism (EULAR) to measure the progress and improvement of rheumatoid arthritis and has been extensively validated (Wells et al., 2008). The DAS28(CRP) scoring includes a 28 tender and swollen joint count, CRP measurement from blood analysis, and a general health assessment on a visual analog scale (Fransen et al., 2003).
DAS28(CRP) values range from 2.0 to 10.0, and more particularly reflect the following status: • Remission: DAS28(CRP)≤2.6 • Low Disease activity: 2.6<DAS28(CRP)≤3.2 • Moderate Disease Activity: 3.2<DAS28(CRP)≤5.1 • High Disease Activity: DAS28(CRP)>5.1
In practice, the DAS28(CRP) measurement involves the evaluation 28 different joints including in the measurement (proximal interphalangeal joints (10 joints), metacarpophalangeal joints (10), wrists (2), elbows (2), shoulders (2), and knees (2)). When looking at these joints, both the number of joints with tenderness upon touching and swelling are counted.
Firstly, the patient is asked to make a vertical mark on a 100 mm Visual Analog Scale (VAS) corresponding to their general health or global disease activity. Using an electronic touchscreen, the mark is measured from the left-hand side in mm to obtain the VAS value, which is used in the formula below.
Secondly, a swollen and tender joint examination is then performed on the patient. The swollen and tender joints are recorded. From this examination are obtained the total amount of swollen joints (SJC) and the total amount of tender joints (TJC), which are used in the formula below.
Thirdly, C-reactive protein (CRP) levels (in mg/dL) are measured.
Finally, the values obtained above (VAS, JTC28, SJC28, and CRP) are computed into the following Formula to obtain the DAS28(CRP) score.
The number of subjects (N) provided in each groups corresponds to the number of patients starting the study in each group, and the DAS28 (CRP) data reported below corresponds to the responding patients continuing for the entire 24 weeks on their initial treatment course.

RA patients [2] = assay: [HDL] determination, Study 4 (RA patients, 4 weeks, add-on to MTX); type: in vivo, human
From the text: Randomized, double-blind, placebo-controlled, multicenter, phase II study of Compound 1 (dosed as a [Compound 1:HCl:3H2O]) to compare four dose regimens versus placebo, in combination with methotrexate, administered for 4 weeks in the treatment of subjects with active rheumatoid arthritis who have an inadequate response to methotrexate alone.
Randomized double-blind, placebo-controlled add on study in subjects with active RA who have an inadequate response to MTX monotherapy, in combination with methotrexate, administered for 4 weeks in the treatment of subjects with active rheumatoid arthritis who have an inadequate response to methotrexate alone.
90 subjects randomized to one of 4 dose regimens of Compound 1 (dosed as a [Compound 1:HCl:3H2O]) or placebo, on top of their stable dose of MTX. Thus, each of the 4 different doses of Compound 1 (dosed as a [Compound 1:HCl:3H2O]) and placebo groups has 18 subjects.
Compound 1 (dosed as a [Compound 1:HCl:3H2O]) capsules administered orally in 30 mg, 75 mg, 150 mg, or 300 mg doses per day for 4 weeks.
This assay relies on a homogeneous enzymatic colorimetric test. In the presence of magnesium ions, dextran sulfate selectively forms water-soluble complexes with LDL, VLDL and chylomicrons which are resistant to PEG-modified enzymes.
The cholesterol concentration of [HDL]-cholesterol is determined enzymatically by cholesterol esterase and cholesterol oxidase coupled with PEG to the amino groups (approx. 40%).
In the presence of peroxidase, the hydrogen peroxide generated reacts with 4-amino-antipyrine and Sodium N-(2-hydroxy-3-sulfopropyl)-3,5-dimethoxyaniline (HSDA) to form a purple-blue dye. The color intensity of this dye is directly proportional to the cholesterol concentration and is measured photometrically.
Human serum and plasma samples [HDL] determination was done on a Roche/Hitachi Cobas c 701/702 system which automatically calculate the analyte concentration of each sample. Samples containing precipitates are centrifuged before performing the assay.

Compound: O=C(Nc1nc2cccc(-c3ccc(CN4CCS(=O)(=O)CC4)cc3)n2n1)C1CC1 [Compound 1, cyclopropanecarboxylic acid {5-[4-(1,1-dioxo-thiomorpholin-4-ylmethyl)-phenyl]-[1,2,4]triazolo[1,5-a]pyridin-2yl}-amide]
- DAS28(CRP) mean CFB (LOCF) - over 24 weeks (RA patients [1]; 50 mg q.d., Week 16): −1.88
- DAS28(CRP) mean CFB (LOCF) - over 12 weeks (RA patients [1]; 50 mg q.d., week 1): −0.70
- DAS28(CRP) mean CFB (LOCF) - over 24 weeks (RA patients [1]; 50 mg q.d., week 1): −0.75
- DAS28(CRP) mean CFB (LOCF) - over 12 weeks (RA patients [1]; 50 mg q.d., week 2): −0.97
- DAS28(CRP) mean CFB (LOCF) - over 12 weeks (RA patients [1]; 50 mg q.d., week 4): −1.37
- DAS28(CRP) mean CFB (LOCF) - over 24 weeks (RA patients [1]; 50 mg q.d., week 12): −1.75
- % patients reaching low disease activity and/or remission at week 24 (LOCF) (RA patients [1]; 100 mg q.d.): 50%
- DAS28(CRP) mean CFB (LOCF) - over 12 weeks (RA patients [1]; 100 mg q.d., week 1): −0.88
- DAS28(CRP) mean CFB (LOCF) - over 24 weeks (RA patients [1]; 100 mg q.d., week 1): −0.87
- DAS28(CRP) mean CFB (LOCF) - over 12 weeks (RA patients [1]; 100 mg q.d., week 4): −1.50
- DAS28(CRP) mean CFB (LOCF) - over 24 weeks (RA patients [1]; 100 mg q.d., week 12): −2.04
- DAS28(CRP) mean CFB (LOCF) - over 24 weeks (RA patients [1]; 100 mg q.d., week 16): −2.39
- DAS28(CRP) mean CFB (LOCF) - over 24 weeks (RA patients [1]; 200 mg q.d., week 8): −2.23
- DAS28(CRP) mean CFB (LOCF) - over 24 weeks (RA patients [1]; 200 mg q.d., week 20): −2.55
- [HDL] levels (RA patients [2]; 30 mg q.d., Baseline): 1.40 mmol/L
- [HDL] levels (RA patients [2]; 30 mg q.d., week 1): 1.44 mmol/L
- [HDL] levels (RA patients [2]; 30 mg q.d., week 2): 1.43 mmol/L
- [HDL] levels (RA patients [2]; 30 mg q.d., week 3): 1.38 mmol/L
- [HDL] levels (RA patients [2]; 30 mg q.d., week 4): 1.43 mmol/L
- [HDL] % Mean % variation vs baseline after 4 weeks (RA patients [2]; 30 mg qd): 4%
- [HDL] levels (RA patients [2]; 75 mg q.d., Baseline): 1.46 mmol/L
- [HDL] levels (RA patients [2]; 75 mg q.d., week 1): 1.46 mmol/L
- [HDL] levels (RA patients [2]; 75 mg q.d., week 2): 1.50 mmol/L
- [HDL] levels (RA patients [2]; 75 mg q.d., week 3): 1.56 mmol/L
- [HDL] levels (RA patients [2]; 75 mg q.d., week 4): 1.57 mmol/L
- [HDL] % Mean % variation vs baseline after 4 weeks (RA patients [2]; 75 mg qd): 11%
- [HDL] levels (RA patients [2]; 150 mg q.d., Baseline): 1.46 mmol/L
- [HDL] levels (RA patients [2]; 150 mg q.d., week 1): 1.45 mmol/L
- [HDL] levels (RA patients [2]; 150 mg q.d., week 2): 1.47 mmol/L
- [HDL] levels (RA patients [2]; 150 mg q.d., week 3): 1.55 mmol/L
- [HDL] levels (RA patients [2]; 150 mg q.d., week 4): 1.53 mmol/L
- [HDL] % Mean % variation vs baseline after 4 weeks (RA patients [2]; 150 mg qd): 4%
- [HDL] levels (RA patients [2]; 300 mg q.d., Baseline): 1.36 mmol/L
- [HDL] levels (RA patients [2]; 300 mg q.d., week 1): 1.55 mmol/L
- [HDL] levels (RA patients [2]; 300 mg q.d., week 2): 1.73 mmol/L
- [HDL] levels (RA patients [2]; 300 mg q.d., week 3): 1.75 mmol/L
- [HDL] levels (RA patients [2]; 300 mg q.d., week 4): 1.84 mmol/L
- [HDL] % Mean % variation vs baseline after 4 weeks (RA patients [2]; 300 mg qd): 38%
